System: bovine full-depth cartilage explants
Assay: Ex vivo bovine cartilage explant model
Format: cell-based
Conditions: serum-free culture, biomarkers (P2NP, C2M, AGNx1, AGNx2) in supernatant at day 7, 14 and 21, FIG. 1 (C2M) and FIG. 2 (AGNx2), oncostatin M + TNF-alpha
Protocol: The method of this assay is descrived in the following literature (Rheumatol Int. 2013 February; 33(2):401-11).
Full-depth cartilage explants were harvested from the knee of either back legs of a cow less than 24 month old. All the FDC explants are divided into different treatment group according to the explants weight and metabolic activity (viability) measured by Alamar Blue. Compounds were freshly added to the explants at each media change. The explants were cultured in serum-free conditions. Supernatants retrieved from the culture were analyzed by biomarkers (P2NP, C2M, AGNx1, AGNx2) at day 7, 14 and 21.

| Compound | inhibition of cartilage destruction |
| --- | --- |
| CCc1nc2c(C)nc(C)cc2n1-c1ccc(CCNC(=O)NS(=O)(=O)c2ccc(C)cc2)cc1 [Compound A, 3-[2-(4-{2-ethyl-4,6-dimethyl-1H-imidazo[4,5-c]pyridin-1-yl}phenyl)ethyl]-1-[(4-methylbenzene)sulfonyl]urea] | dose-dependent inhibition of cartilage destruction |
| C[C@H](NC(=O)c1cc(Cl)cnc1Oc1cccc(F)c1)c1ccc(C(=O)O)cc1 [Compound B, 4-[(1S)-1-({[5-chloro-2-(3-fluorophenoxy)pyridin-3-yl]carbonyl}amino)ethyl]benzoic acid] | dose-dependent inhibition of cartilage destruction |

Reference: patent US10391086B2, “Use of EP4 receptor antagonists in the treatment of cartilage disease” (AskAt Inc., priority 2013, dated 2019)
